What was measured:
Assay type in all cases: in vivo
[1] = system: two-spotted red spiders (Tetranychus telarius); assay: Acaricidal effect on two-spotted red spiders, imago-killing rate, 500 ppm leaf immersion; settings: female imagoes on green bean leaf, leaf immersion about 5 seconds, concentration 500 ppm, fifth day after treatment, 25° C.
Protocol: (§1) Acaricidal Effect on Larvae of Two-Spotted Red Spiders (Tetranychus telarius): A stem of green bean seedling having only one primary left was placed in a test tube (capacity: 50 ml) containing water. 15 female imagoes of two-spotted red spiders were put on each leaf. One day after, the leaf having the two-spotted red spiders was immersed (about 5 seconds) in the present insecticide diluted with water, which had been prepared according to the Preparation Example, (concentration: 500 ppm, repetition: twice). They were kept in a constant-temperature room at 25° C. On the fifth day after the treatment, the female imagoes on the leaf of the green bean seedling were observed. The imago-killing rate (%) was determined on the basis of the results of the observation to obtain the results shown in Table 6.

[2] = system: eggs of two-spotted red spiders (Tetranychus telarius); assay: Acaricidal effect on eggs of two-spotted red spiders, ovicidal rate, 500 ppm spray; settings: eggs on green bean leaf disc; spray 3.5 ml; concentration 500 ppm; 8 days after treatment
Protocol: Acaricidal Effect on Eggs of Two-Spotted Red Spiders (Tetranychus telarius) 5 female imagoes of two-spotted red spiders were released on a green been leaf disc (diameter: 3 cm). Then, the imagoes were left to lay eggs on the leaf disc for 20 hours and then removed therefrom. The present acaricide which had been prepared according to Preparation Example 1 was diluted with water to a predetermined concentration. 3.5 ml of the preparation thus obtained was sprayed with a rotary spraying column (Mizuho Rika) over the disc (concentration: 500 ppm, repetition: twice). 8 days after the treatment, the number of unhatched eggs was counted to determine the ovicidal rate (%).

[3] = system: two-spotted red spiders (Tetranychus telarius); assay: Acaricidal effect of a low concentration (12.5 ppm) on two-spotted red spiders; settings: leaf immersion, female imagoes, fifth day after treatment, 25° C.
Protocol: as §1, with “A” for “Acaricidal Effect on Larvae of Two-Spotted Red Spiders (Tetranychus telarius): A”
Acaricidal Effect of a Low Concentration of Acaricide on Larvae of Two-Spotted Red Spiders (Tetranychus telarius)
The same tests as those of Test Example 2 were repeated except that the concentration of the acaricide was changed to 12.5 ppm.

| SMILES | Acaricidal rate (%) [1] [%] | Ovicidal rate (%) [2] [%] | acaricidal effect [3] [%] |
| --- | --- | --- | --- |
| CO/C=C(/C(=O)OC)c1c(OCc2ccc(Oc3ncc(C(F)(F)F)cc3Cl)cc2)c(C)nn1C [Table 2-13] | 100 | 100 |  |
| CO/C=C(/C(=O)OC)c1c(C#Cc2cc(C)cc(C)c2)c(C)nn1C [Table 1-9] | 96 | 80 |  |
| COC=C(C(=O)OC)c1c(OCc2ccc(Cl)cc2Cl)c(C)nn1C [Table 2-18] | 100 | 100 |  |
| CO/N=C(/C(=O)OC)c1c(CON=C(C)c2ccc(C(F)(F)F)cc2)c(C)nn1C [Table 3-90] | 100 | 100 |  |
| CCn1nc(C(F)(F)F)c(C#Cc2nc(OC(C)C)cc(C(F)(F)F)n2)c1/C(=C\OC)C(=O)OC [Table 1-37] | 100 | 100 | 100 |
| CO/C=C(/C(=O)OC)c1c(C#Cc2cc(C(F)(F)F)cc(C(F)(F)F)c2)c(C(C)(C)C)nn1C [Table 1-18] | 100 | 100 | 100 |
| CO/C=C(/C(=O)OC)c1c(OCc2sc(Oc3ccc(C(F)(F)F)cc3)nc2C)c(C)nn1C [Table 2-14] | 100 | 100 |  |
| C#CCN(C(=O)OC)c1c(OCc2ccccc2)c(C)nn1C [Table 4-23] | 100 | 100 |  |
| CO/C=C(/C(=O)OC)c1c(OCc2ccc(F)cc2C(F)(F)F)c(C)nn1C [Table 2-24] | 100 | 100 |  |
| CCn1nc(C(F)(F)F)c(C#Cc2cc(C(F)(F)F)cc(C(F)(F)F)c2)c1/C(=C\OC)C(=O)OC [Table 1-39] | 100 | 100 | 100 |
| COC=C(C(=O)OC)c1c(C#Cc2cc(C(F)(F)F)cc(C(F)(F)F)c2)c(C(F)(F)F)nn1C [Table 1-20, Methyl α-[1-methyl-3-trifluoromethyl-4{3,5-bis(trifluoromethyl)phenylethynyl}-5-pyrazole]-β-methoxyacrylate] | 100 | 100 | 100 |
| CCc1nn(CC)c(/C(=C\OC)C(=O)OC)c1OCc1nc(Cl)cc(C(F)(F)F)n1 [Table 2-33] | 100 | 100 |  |
| CO/C=C(/C(=O)OC)c1c(COc2ccc(OC(F)(F)F)cc2)c(C)nn1C [Table 3-63] | 100 | 100 |  |
| CO/C=C(/C(=O)OC)c1c(C#Cc2cc(Cl)cc(Cl)c2)c(C)nn1C [Table 1-6] | 100 | 100 | 100 |
| CO/C=C(/C(=O)OC)c1c(OCc2cc(C(C)(C)C)ccc2C)c(C)nn1C [Table 2-15] | 100 | 100 |  |
| CO/C=C(/C(=O)OC)c1c(OCc2ccc(Cl)c(Cl)c2)c(C)nn1C [Table 2-16] | 96 | 80 |  |
| CO/C=C(/C(=O)OC)c1c(OCc2cc(Cl)ccc2Cl)c(C)nn1C [Table 2-22] | 100 | 100 |  |
| CO/C=C(/C(=O)OC)c1c(OCc2cccc(Oc3cccc(C(F)(F)F)c3)c2)c(C)nn1C [Table 2-6] | 100 | 100 |  |
| CO/C=C(/C(=O)OC)c1c(CON=C(C)c2cccc(OC(F)F)c2)c(C)nn1C [Table 3-102] | 100 | 100 |  |
| CCc1nn(CC)c(/C(=C\OC)C(=O)OC)c1C#Cc1cc(C(F)(F)F)cc(C(F)(F)F)c1 [Table 1-28] | 100 | 100 | 100 |
| CO/C=C(/C(=O)OC)c1c(OCc2cccc(Oc3ccc(C(F)(F)F)cc3Cl)c2)c(C)nn1C [Table 2-11] | 100 | 100 |  |

| SMILES | Acaricidal rate (%) [1] [%] | Ovicidal rate (%) [2] [%] | acaricidal effect [3] [%] |
| --- | --- | --- | --- |
| CO/C=C(/C(=O)OC)c1c(OCc2cccc(Oc3ccc(C)cc3)c2)c(C)nn1C [Table 2-12] | 100 | 100 |  |
| C#CCN(C(=O)OC)c1c(OCc2cccc(OCc3ccccc3)c2)c(C)nn1C [Table 4-85] | 100 | 100 |  |
| CO/C=C(/C(=O)OC)c1c(OCc2ccc(Oc3ccc(C(F)(F)F)cc3)cc2)c(C)nn1C [Table 2-2] | 100 | 100 |  |
| CO/C=C(/C(=O)OC)c1c(OCc2cccc(Oc3ccc(Cl)c(Cl)c3)c2)c(C)nn1C [Table 2-20] | 100 | 100 |  |
| CO/C=C(/C(=O)OC)c1c(OCc2ccc(F)c(Oc3ccccc3)c2)c(C)nn1C [Table 2-7] | 100 | 100 |  |
| C#CCN(C(=O)OC)c1c(OCc2cc(Cl)ccc2Cl)c(C)nn1C [Table 4-40] | 100 | 100 |  |
| CO/C=C(/C(=O)OC)c1c(OCc2ccc(Oc3ccc(Cl)c(Cl)c3)cc2)c(C)nn1C [Table 2-10] | 100 | 100 |  |
| CO/C=C(/C(=O)OC)c1c(CSc2ccc(C(F)(F)F)cc2)c(C)nn1C [Table 3-66] | 100 | 100 |  |
| CCc1nn(C)c(/C(=N\OC)C(=O)NC)c1CON=C(C)c1ccc(OC(F)(F)F)cc1 [Table 3-75] | 100 | 100 |  |
| CO/C=C(/C(=O)OC)c1c(C#Cc2cc(C(F)(F)F)cc(C(F)(F)F)c2)c(-c2ccc(C(F)(F)F)cc2)nn1C [Table 1-36] |  |  | 100 |
| CO/C=C(/C(=O)OC)c1c(OCc2ccc(OC(F)(F)F)cc2)c(C(F)(F)F)nn1C [Table 2-29] | 100 | 100 |  |
| CO/C=C(/C(=O)OC)c1c(OCc2cc(C(F)(F)F)ccc2C(F)(F)F)c(C)nn1C [Table 2-25] | 100 | 100 |  |
| CO/C=C(/C(=O)OC)c1c(OCc2cnc(OC(C)C(F)(F)F)s2)c(C)nn1C (racemic) [Table 2-19] | 100 | 100 |  |
| CCc1nn(CC)c(/C(=C\OC)C(=O)OC)c1OCc1nc(OC(C)C)cc(C(F)(F)F)n1 [Table 2-32] | 100 | 100 |  |
| CO/C=C(/C(=O)OC)c1c(OCc2ccc(OC(F)F)cc2)c(C(F)(F)F)nn1C [Table 2-30] | 100 | 100 |  |
| CO/C=C(/C(=O)OC)c1c(OCc2cccc(Oc3ccc(Cl)cc3)c2)c(C)nn1C [Table 2-9] | 100 | 100 |  |
| CNC(=O)C(=NOC)c1c(CON=C(C)c2ccc(C(F)(F)F)cc2)c(C)nn1C [Table 3-92] | 100 | 100 |  |
| CO/C=C(/C(=O)OC)c1c(OCc2cccc(Oc3ccc(F)cc3)c2)c(C)nn1C [Table 2-21] | 100 | 100 |  |
| CO/C=C(/C(=O)OC)c1c(OCc2ccccc2C(F)(F)F)c(C)nn1C [Table 2-23] | 100 | 100 |  |
| CO/C=C(/C(=O)OC)c1c(COc2ccc(C(F)(F)F)cc2)c(C)nn1C [Table 3-61] | 100 | 100 |  |

— patent US20020156115A1, “Insecticidal and acaricidal composition, and methods of using the same” (AGRO-KANESHO CO., LTD., priority 1999, published 2002)
